In patent EP1222194B1, “7-ACYLAMINO-3-HETEROARYLTHIO-3-CEPHEM CARBOXYLIC ACID ANTIBIOTICS AND PRODRUGS THEREOF” (priority 1999, dated 2001):
≈ marks a conversion by molar mass, not a printed value.

Tests used:
[1] = tested on: S. haemolyticus 05 (Meth^R); experiment: Broth microdilution MIC (NCCLS); type: cell-based; settings: Staphylococcus haemolyticus, Mueller-Hinton Broth, 24 h at 35 °C
Protocol: (§1) Compounds were evaluated for antimicrobial activity against a panel of bacterial strains using a broth microdilution assay performed as recommended by the NCCLS (1). The minimum inhibitory concentration (MIC) was defined as the lowest concentration of drug which prevented the growth of the bacteria. The following 16 organisms constituted the primary panel of evaluation:
(§2) For this primary panel, the assay was performed in Mueller-Hinton Broth (MHB) with a final bacterial inoculum of 5 x 10^5 CFU/mL (from an early-log phase culture) and a final volume of 100 µL. Control drugs, including imipenem, vancomycin, Penicillin G, dicloxacillin (vs. MSSA ATCC29213 only), and new compounds were prepared at a concentration equivalent to 2-fold the desired final concentration. Dilution of compounds were prepared directly in the plates by serial 2-fold dilution using a multichannel pipette. Positive and negative growth control were included in each plate.
(§3) The bacterial inocula were prepared as follows. For each strain one isolated colony was used to inoculate a volume of 8 mL of Mueller-Hinton broth and these cultures were incubated overnight (20h) at 35 °C in a shaking incubator. At the exception of Enterococcus strains, culture were then diluted 1:10 and allowed to grow for an additional one hour at 35 °C in a shaking incubator. The inocula were prepared by diluting the early log-phase (1h) cultures 1:1000 with fresh Mueller-Hinton broth. E. faecium and E. faecalis were prepared by diluting overnight cultures 1:333 and 1:666, respectively, with fresh Mueller-Hinton broth . A volume of 50 µL of the inocula was added to each well. […] The exact inocula were determined by applying […] of 10-fold serial dilution of the bacterial suspensions on TSA. After overnight incubation at 35 °C, colony forming units were manually counted.
(§4) Microtiter plates were incubated during 24 h at 35 °C and were read using a microtiterplate reader (Molecular Devices) at 650 nm as well as by visual observation using a microtiterplate reading mirror.

S. aureus ATCC 29213 = experiment: Broth microdilution MIC (NCCLS); type: cell-based; settings: Staphylococcus aureus, ATCC29213, Mueller-Hinton Broth, 24 h at 35 °C
Protocol: as §1, §2, §3, §4

[2] = tested on: S. aureus ATCC 13709 (Meth^S); experiment: Broth microdilution MIC (NCCLS); type: cell-based; settings: Staphylococcus aureus, ATCC13709, Mueller-Hinton Broth, 24 h at 35 °C
Protocol: as §1, §2, §3, §4

[3] = tested on: S. aureus 76 (Meth^R)(lac^+); experiment: Broth microdilution MIC (NCCLS); type: cell-based; settings: Staphylococcus aureus, Mueller-Hinton Broth, 24 h at 35 °C
Protocol: as §1, §2, §3, §4

[4] = tested on: S. aureus ATCC 13709 (Smith diffuse); experiment: Murine model for lethal bacteremic peritonitis (septicemia); type: in vivo, mice; settings: Dose 5 mg/kg, subcutaneously at 0 and 2 hrs post-challenge
Protocol: 10 mice/group were injected intraperitoneally with 2.98x10^7 cfu S. aureus ATCC 13709 (Smith diffuse) and treated at 0 and 2hrs post-challenge with serial two-fold doses of new cephalosporin antibiotic, imipenem and vancomycin subcutaneously in order to determine the ED50. Male Swiss-Webster mice weighing originally 24.2 - 26.1 g were obtained from Charles Rivers Labs, Hollister, CA. Mice were housed 10 per cage and given free access to water and mouse chow.
Staphylococcus aureus ATCC 13709 (Smith diffuse) was grown overnight at 37 °C in Brain-heart Infusion broth (BHIB). The following morning, it was subcultured to fresh BHIB and incubated for 4-5h at 37 °C. The log-phase growth cells were washed once with physiological saline and adjusted to the desired concentration by correlation of absorbency at OD 600 nm with predetermined plate counts (NCCLS, 1994). The cell suspension was mixed with an equal volume of sterile 14% hog-gastric mucin (2). Inoculum was kept in an ice bath until used (<1h).
Mice were challenged via an injection of 0.5 mL bacterial suspension intraperitoneally. The bacterial challenge was 2.98 x 10^7 cfu/mouse.
Imipenem (Primaxin IV; Lot 7294A), vancomycin (Vancocin; Lot 8MU60W), and new cephalosporin antibiotic were prepared by serial two-fold dilutions to concentrations of 0.078 - 0.005 mg/mL, 1.2 - 0.075 mg/mL, 0.3 - 0.02 mg/mL, 0.3 - 0.02 mg/mL and 0.3 - 0.02 mg/mL respectively in sterile water (1). All antibiotics were administered subcutaneously in 0.1 mL volumes at 0 and 2 hours post-challenge. Concentrations of all compounds are based on the weight of the bioactive ingredients.
The 50% effective dose (ED50) was calculated by the probit method (3) utilizing a program entitled Probit (Nycomed-Salutar).

[5] = tested on: S. aureus PC1 (Meth^S)(lac^+); experiment: Broth microdilution MIC (NCCLS); type: cell-based; settings: Staphylococcus aureus; S. aureus PC1 (Meth^S)(lac^+); Mueller-Hinton Broth, 24 h at 35 °C; read-out: MIC
Protocol: as §1, §2, §3, §4

[6] = tested on: S. aureus Col8A(Meth^S)(lac^-); experiment: Broth microdilution MIC (NCCLS); type: cell-based; settings: Staphylococcus aureus, Mueller-Hinton Broth, 24 h at 35 °C
Protocol: as §1, §2, §3, §4

Row | Structure (SMILES) | MIC [1] [µg/mL] | MIC (S. aureus ATCC 29213) [µg/mL] | MIC [2] [µg/mL] | MIC [3] [µg/mL] | Efficacy in murine septicemia %survival [4] | MIC [5] [µg/mL] | MIC [6] [µg/mL]
1 | NCCSCc1ccncc1SC1=C(C(=O)O)N2C(=O)[C@@H](NC(=O)/C(=N\O)c3nc(N)sc3Cl)[C@H]2SC1 [Cmpd 3, (7R)-7-[(Z)-2-(2-amino-5-chlorothiazol-4-yl)-2-(hydroxyimino)acetamido]-3-[4-(2-aminoethylthiomethyl)pyrid-3-ylthio]-3-cephem-4-carboxylic acid] | 2 (≈ 3.32 µM) | 0.13 (≈ 0.216 µM) | 0.13 (≈ 0.216 µM) | 1 (≈ 1.66 µM) | 5/80% | – | –
2 | N=C(N)NCCSCc1ncccc1SC1=C(C(=O)O)N2C(=O)[C@@H](NC(=O)/C(=N\O)c3nsc(N)n3)[C@H]2SC1 [Cmpd 2-R, (7R)-7-[(Z)-2-(5-amino-1,2,4-thiadiazol-3-yl)-2-(hydroxyimino)acetamido]-3-[2-(2-guanidinoethylthiomethyl)pyrid-3-ylthio]-3-cephem-4-carboxylic acid] | 2 (≈ 3.27 µM) | 0.13 (≈ 0.213 µM) | 0.13 (≈ 0.213 µM) | 1 (≈ 1.64 µM) | – | 0.13 (≈ 0.213 µM) | 0.25 (≈ 0.409 µM)
3 | NCCSCc1ncccc1SC1=C(C(=O)O)N2C(=O)[C@@H](NC(=O)/C(=N\O)c3nsc(N)n3)[C@H]2SC1 [Cmpd 2, (7R)-7-[(Z)-2-(5-amino-1,2,4-thiadiazol-3-yl)-2-(hydroxyimino)acetamido]-3-[2-(2-aminoethylthiomethyl)pyrid-3-ylthio]-3-cephem-4-carboxylic acid] | 2 (≈ 3.52 µM) | – | – | 1 (≈ 1.76 µM) | – | – | –
4 | NCCSCc1ncccc1SC1=C(C(=O)O)N2C(=O)[C@@H](NC(=O)/C(=N\O)c3nc(N)sc3Cl)[C@H]2SC1 [Cmpd 1, (7R)-7-[(Z)-2-(2-amino-5-chlorothiazol-4-yl)-2-(hydroxyimino)acetamido]-3-[2-(2-aminoethylthiomethyl)pyrid-3-ylthio]-3-cephem-4-carboxylic acid] | 1 (≈ 1.66 µM) | – | 0.13 (≈ 0.216 µM) | 1 (≈ 1.66 µM) | – | – | –
5 | N=C(N)NCCSCc1ncccc1SC1=C(C(=O)O)N2C(=O)[C@@H](NC(=O)/C(=N\O)c3nc(N)sc3Cl)[C@H]2SC1 [Cmpd 2-S, (7R)-7-[(Z)-2-(2-amino-5-chlorothiazol-4-yl)-2-(hydroxyimino)acetamido]-3-[2-(2-guanidinoethylthiomethyl)pyrid-3-ylthio]-3-cephem-4-carboxylic acid] | 1 (≈ 1.55 µM) | 0.13 (≈ 0.202 µM) | 0.06 (≈ 0.0931 µM) | 0.5 (≈ 0.776 µM) | – | 0.13 (≈ 0.202 µM) | 0.125 (≈ 0.194 µM)
